Experimental data from patent US20220347309A1, “PYRROLOBENZODIAZEPINE RESISTANCE” (ADC THERAPEUTICS SA, priority 2018, published 2022).

Experiments:
Karpas PBDr cells [1] = assay: DNA interstrand cross-linking, comet assay; assay type: cell-based, human; conditions: 130 μM ADCT-301 or 280 μM SG3199 (figure legends: pM) for 2 hours, then 24 hours
Description: (§1) The formation of inter-strand cross-links (ICLs) by either ADCT-301 or SG3199 was measured using a modification of the single cell gel electrophoresis (comet) assay (Spanswick V J, Hartley J M, Hartley J A. Measurement of DNA interstrand crosslinking in individual cells using the Single Cell Gel Electrophoresis (Comet) assay. Methods Mol Biol. 613, 267-82 (2010)). Cells were treated with […] ADCT-301 or […] SG3199 for 2 hours, then washed and incubated for 24 hours under normal cell culture conditions. All cells were irradiated with 18 Gy (5 Gy/min for 3.6 min). Comet slides were reviewed under a 20× objective on an epifluorescence microscope equipped with: Hg arc lamp; 580 nm dichroic mirror; and 535 nm excitation and 645 nm emission filters suitable for visualising of propidium iodide staining with a minimum of 50 Comet images acquired per treatment condition. The Olive Tail Moment (OTM) was determined as the product of the tail length and the fraction of total DNA in the tail as recorded by Komet 6 software (Andor Technology, Belfast, UK) and the percentage reduction in OTM calculated according to the formula:
(§2) % decrease in tail moment=[1−(TMdi−TMcu)/(TMci−TMcu)]*100 • [TMdi=Tail Moment drug irradiated; TMcu=TM control un-irradiated; TMci=TM control irradiated]
(§3) The results are shown in FIG. 18 for the ADCR line and FIG. 19 for the PBDR line.

Karpas ADCr cells [2] = assay: DNA interstrand cross-linking, comet assay; assay type: cell-based, human; conditions: 130 μM ADCT-301 or 280 μM SG3199 (figure legends: pM) for 2 hours, then 24 hours
Description: as §1, §2, §3

NCI-N87 wt cells [3] = assay: MTS in vitro cytotoxicity, 144 h continuous exposure; assay type: cell-based, human; conditions: NCI-N87 wt, 144 h continuous exposure, mean; read-out: IC50
Description: (§10) To generate a resistant population to either ADCT-502 or SG3199, human gastric cancer NCI-N87 cells (expressing HER2) were incubated with an approximate IC50 dose of the drug for 144 hours. The cells were then washed and returned to fresh medium until normal cell growth was recovered. This process was repeated until a measurable and stable loss in cytotoxic efficacy was established using the MTS assay.
(§11) To measure the in vitro cytotoxicity with the MTS assay, cells were incubated with a 10-fold dilution range of ADCT-502 or SG3199, and incubated with continuous exposure for 144 hours (at least three cell doubling times under normal cell culture conditions). After incubation the CellTiter 960 AQueous One Solution Cell Proliferation Assay (MTS) was used to measure growth inhibition, by adding 20 μl reagent to the cells and incubating for 3-4 hours, then reading the absorbance at 492 nm. Mean % growth of the ADC or PBD treated cells was calculated relative to an untreated control.
(§12) To measure the cross-resistance of the NCI-N87 ADCR cells to the SG3199 PBD warhead, and the PBDR cells to ADCT-502, the in vitro cytotoxicity assay was carried out as described above, treating the cells with the opposite drug molecule to the one with which they were generated.

[4] = tested on: NCI-N87 ADCr cells (ADCT-502 acquired resistant); assay: as above; assay type: cell-based, human
Description: as §10, §11, §12

Karpas-299 wt cells [5] = assay: Single dose 2-hour exposure cytotoxicity (MTS); assay type: cell-based, human; conditions: 130 pM ADCT-301 or 280 pM SG3199 for 2 hours, then 96 hours, vs untreated control
NCI-N87 PBDr cells [6] = assay: Single dose 2-hour exposure cytotoxicity (MTS); assay type: cell-based, human; conditions: 1.7 nM ADCT-502 or 1.7 nM SG3199 for 2 hours, then 144 hours
Description: (§4) To investigate growth inhibition under the same conditions under which DNA ICL formation was measured, NCI-N87-ADCR cells were treated with 1 nM ADCT-502, and PBDR cells treated with 1.7 nM SG3199 for 2 hours, then washed and incubated for 144 hours under normal cell culture conditions. The MTS assay and calculation of % growth compared to the untreated control was carried out as previously described.
(§5) To investigate whether the cross-resistance in ICL formation observed in the NCI-N87 resistant cell lines also correlates with growth inhibition at this dose, ADCR cells were treated with 1 nM SG3199, and PBDR cells treated with 1.7 nM ADCT-502 for 2 hours, then washed and incubated for 144 hours under normal cell culture conditions. The MTS assay and calculation of % growth compared to the untreated control was carried out as previously described. The results are shown in FIG. 24 for the ADCR line and FIG. 25 for the PBDR line.

NCI-N87 ADCr cells [7] = assay: Single dose 2-hour exposure cytotoxicity (MTS); assay type: cell-based, human; conditions: 1 nM ADCT-502 or 1 nM SG3199 for 2 hours, then 144 hours
Description: as §4, §5

Karpas PBDr cells [8] = assay: Single dose 2-hour exposure cytotoxicity (MTS); assay type: cell-based, human; conditions: 130 μM ADCT-301 (legend: pM) or 280 pM SG3199 for 2 hours, then 96 hours
Description: (§6) To investigate growth inhibition under the same conditions under which DNA ICL formation was measured, Karpas-ADCR cells were treated with 130 pM ADCT-301, and Karpas-PBDR cells treated with 280 pM SG3199 for 2 hours, then washed and incubated for 96 hours under normal cell culture conditions. The MTS assay and calculation of % growth compared to the untreated control was carried out as previously described.
(§7) To investigate whether the cross-resistance in ICL formation observed in the Karpas resistant cell lines also correlates with growth inhibition at this dose, ADCR cells were treated with […] SG3199, and PBDR cells treated with […] ADCT-301 for 2 hours, then washed and incubated for 96 hours under normal cell culture conditions. The MTS assay and calculation of % growth compared to the untreated control was carried out as previously described. The results are shown in FIG. 22 for the ADCR line and FIG. 23 for the PBDR line.

Karpas ADCr cells [9] = assay: Single dose 2-hour exposure cytotoxicity (MTS); assay type: cell-based, human; conditions: 130 pM ADCT-301 or 280 μM SG3199 (legend: pM) for 2 hours, then 96 hours
Description: as §6, §7

[10] = tested on: human tumor cell lines expressing MDR1; conditions: cited from earlier work
[11] = tested on: NCI-N87 PBDr cells (SG3199 acquired resistant); assay: MTS in vitro cytotoxicity, 144 h continuous exposure; assay type: cell-based, human
Description: as §10, §11, §12

NCI-N87 wt cells [12] = assay: Single dose 2-hour exposure cytotoxicity (MTS); assay type: cell-based, human; conditions: single dose for 2 hours, then 144 hours, vs untreated control
Karpas-299 wt cells [13] = assay: DNA interstrand cross-linking, single cell gel electrophoresis (comet) assay; assay type: cell-based, human; conditions: 130 μM ADCT-301 or 280 μM SG3199 (figure legends: pM) for 2 hours, then 24 hours
Description: as §1, §2, §3

NCI-N87 PBDr cells [14] = assay: DNA interstrand cross-linking, comet assay; assay type: cell-based, human; conditions: 1 nM ADCT-502 or 1.7 nM SG3199 for 2 hours, then 24 hours
Description: (§8) The formation of inter-strand cross-links (ICLs) by either ADCT-502 or SG3199 was measured using the modification of the single cell gel electrophoresis (comet) assay. Cells were treated with 1 nM ADCT-502 or 1.7 nM SG3199 for 2 hours, then washed and incubated for 24 hours under normal cell culture conditions. All cells were irradiated with 18 Gy (5 Gy/min for 3.6 min). ICL formation was quantitated by measuring Olive tail moment (OTM) using the Komet 4 software, and the percentage reduction in OTM compared to an untreated irradiated control.
(§9) The results are shown in FIG. 20 for the ADCR line and FIG. 21 for the PBDR line.

NCI-N87 ADCr cells [15] = assay: DNA interstrand cross-linking, comet assay; assay type: cell-based, human; conditions: 1 nM ADCT-502 or 1.7 nM SG3199 for 2 hours, then 24 hours
Description: as §8, §9

NCI-N87 wt cells [16] = assay: DNA interstrand cross-linking, comet assay; assay type: cell-based, human; conditions: 1 nM ADCT-502 or 1.7 nM SG3199 for 2 hours, then 24 hours
Description: as §8, §9

For `COc1cc2c(cc1OCCCCCOc1cc3c(cc1OC)C(=O)N1C=C(C)C[C@H]1C=N3)N=C[C@@H]1CC(C)=CN1C2=O` [SG3199], the “% red. OTM” value (Karpas PBDr cells [1]) was 25.7%, the “% red. OTM” value (Karpas ADCr cells [2]) was 7.2% and the IC50 (NCI-N87 wt cells [3]) was 0.0159 nM. The “fold resistance compared to wildtype” value ([4]; NCI-N87 ADCr vs NCI-N87 wt IC50) was 3.8 fold, the IC50 ([4]; NCI-N87 ADCr, 144 h continuous exposure, mean, read-out: IC50) was 0.0604 nM and the “2 hr mean % growth” value (Karpas-299 wt cells [5]) was 33.8%. For the same molecule, the “2 hr mean % growth” value (NCI-N87 PBDr cells [6]) was 76.6%, the “2 hr mean % growth” value (NCI-N87 ADCr cells [7]) was 57.2% and the “2 hr mean % growth” value (Karpas PBDr cells [8]) was 78.5%. For the same molecule, the “2 hr mean % growth” value (Karpas ADCr cells [9]) was 86.3%, the “susceptibility to multidrug resistance mechanisms” value [10] was “susceptible to multidrug resistance mechanisms” and the “fold resistance compared to wildtype” value ([11]; NCI-N87 PBDr vs NCI-N87 wt IC50) was 3.7 fold. For the same molecule, the IC50 ([11]; NCI-N87 PBDr, 144 h continuous exposure, mean, read-out: IC50) was 0.0586 nM, the “2 hr mean % growth” value (NCI-N87 wt cells [12]) was 29.0% and the “% red. OTM (mean % reduction in Olive Tail Moment)” value (Karpas-299 wt cells [13]) was 55.5%. For the same molecule, the “% red. OTM” value (NCI-N87 PBDr cells [14]) was 30.7%, the “% red. OTM” value (NCI-N87 ADCr cells [15]) was 24% and the “% red. OTM” value (NCI-N87 wt cells [16]) was 51.0%.
